From US20240100006A1, “COMPOSITIONS AND METHODS USING AT LEAST ONE GLYCINE OR DERIVATIVE THEREOF AND AT LEAST ONE LARGE NEUTRAL AMINO ACID AND/OR CATIONIC AMINO ACID OR PRECURSOR THEREOF” (SOCIETE DES PRODUITS NESTLE S.A., priority 2020, published 2024) come the findings set out here.

The test system of the test is isolated mitochondria from skeletal muscle of zebrafish. Kind of test: Acute oxidative stress and mitochondrial high-resolution respirometry. The class given is in vivo. As to the method: Following the stress, fish were divided into controls and treatment groups. […] Fish exposed to the glycine and glucose treatment were incubated in water containing the compound of interest for 2 h at 28° C. at the following doses: 50, 200, 450 μM (Sigma-Aldrich) for glycine; 500 μM and 5 mM (Sigma-Aldrich) for glucose; 450 μM for glycine, arginine and methionine (Sigma-Aldrich). […] After BCA quantification of protein concentration, 150 μg of crude extract were used for high-resolution respirometry quantification. […] Up to three 02k instruments ([…]) were used in parallel. Experiments were performed at 28° C. in modified MiR05 (110 mM sucrose, 0.5 mM EGTA, 3 mM MgCl2, 20 mM taurine, 10 mM KH2PO4, 20 mM HEPES and 0.1% BSA essentially fatty acid free). Respiration of isolated mitochondria was determined using substrate-uncoupler-inhibitor titration (SUIT) protocols (Pesta and […], Methods Mol Biol. 2012; 810:25-58) with modifications. […] CI respiration was calculated as the difference between total respiration (CI+CII) and the addition of CI inhibitor rotenone (0.5 μM); CII respiration was calculated as the difference between inhibited CI respiration and the addition of CII inhibitor malonic acid (5 mM). Total respiration (CI+CII, Tot resp) was assessed as the difference of the respiration in presence of all substrates and the total inhibition of CI and CII.

Molecules are shown by their SMILES. “Also recorded” adds a separate entry of the source.

On to `NCC(=O)O` [glycine], for which, where the note is “adult AB zebrafish, 3 μM menadione 2 h at 28° C., then compound in water 2 h, glycine 50, 200, 450 μM, glucose 500 μM and 5 mM, FIG. 3, n=3 per condition”, the “mitochondrial respiration (O2 consumption; Complex I dependent respiration) after acute oxidative stress” value is given as “restores respiratory levels; also recorded: able to restore mitochondrial respiration”.

Consider `CC1=CC(=O)c2ccccc2C1=O` [menadione, Menadione, reference compound], for which, where the note is “acute oxidative stress inducer, 3 μM in water for 2 h at 28° C., FIG. 3”, the “Complex I dependent respiration” value is “decreasing Complex I dependent respiration”.
